Laboratory results: article PMC11425212 (2024)

What was measured:
[1] = tested on: ATF4-G4 (Pu22T) (DNA, G4) TAAGGGAGGGAGGGAAGGGAGC; assay: NMR solution structure and 1H NMR titration; settings: 10 mM K+ (structure); 50 mM K+ (titration); pH 7, 25 °C; 2.11 mM DNA with 2.4 equivalents COP
[2] = tested on: ATF4-G4 (Pu22T) (DNA, G4) TAAGGGAGGGAGGGAAGGGAGC; assay: fluorescence titration; settings: 50 mM K+; 0.2 µM COP, DNA added stepwise; excitation 377 nm, emission 520-600 nm
[3] = tested on: ATF4-G4 (Pu22T) (DNA, G4) TAAGGGAGGGAGGGAAGGGAGC; assay: CD melting at 264 nm; settings: 5 mM K+ (potassium phosphate); pH 7; 20 µM DNA; COP concentration not given

c1c2c(cc3c1OCO3)-c1cc3ccc4c(c3c[n+]1CC2)OCO4
binding [1]: yes
Kd [2]: ~ 3.9 µM
ΔTm [3]: 25 °C
